According to patent US10137166B2, “Compositions and methods for affecting movement of contaminants, bodily fluids or other entities, and/or affecting other physiological conditions” (Massachusetts Institute of Technology, priority 2006, dated 2018):

Key:
intestine (duodenum) = assay: Perforated intestine at the level of the duodenum; leakage of gastric fluid; assay type: in vivo, adult rat
Procedure: An additional volume of 2% peptide solution was injected into the duodenum at the level of the injury. […] In the control cut at the level of the duodenum, the wall of the intestine inverted and gastric fluids continued to leak from the site of injury when left untreated.

[1] = tested on: liver (lobus sinistras laterialis); assay: Liver, removal of 1/4 of the lobe, topical treatment of the margin; hemostasis; assay type: in vivo
Procedure: In other experiments ¼ of the lobe in the lower right quadrant of the lobus sinistras laterialis was removed, and the margin was treated with a topical application of 2% peptide (RADA16-I) to the site of injury. Bleeding stopped in less than 10 seconds.

spinotrapezius muscles = assay: Muscle trauma, deep cut in the spinotrapezius muscles on the back; hemostasis; assay type: in vivo, rat; settings: 1% peptide solution applied in the cut
Text: The spinotrapezius muscles on the back of the rats were exposed and a deep cut was made in the muscle, after which 1% peptide solution (RADA16-I) was applied in the cut. Within 10 seconds, all bleeding had stopped. With the application of iced saline alone, control animals continued to bleed after 20 seconds.

[2] = tested on: liver and a major branch of the portal vein; assay: Liver, transverse cut transecting a major branch of the portal vein (higher pressure); hemostasis; assay type: in vivo
Procedure: A series of pictures illustrate the experiment. […] The cut was treated with 4% peptide solution applied topically and in the cut. All bleeding stopped within 10 seconds. […] Thus, application of 4% peptide solution brings about complete hemostasis in a high pressure bleeding environment in less than 10 seconds. […] This procedure was repeated several times with the same result.

[3] = tested on: branch of the superior sagittal sinus in the brains of rats and hamsters; assay: Transection of a branch of the superior sagittal sinus in the brain; hemostasis assessed visually from time-stamped video; assay type: in vivo
Procedure: Animals were anesthetized with an i.p. injection of ketamine (80 mg/kg) and xylazine (8 mg/kg). All surgical procedures were conducted under an operating microscope. Twenty-two animals, including 10 adult hamsters and 12 young adult female Spraque-Dawley rats (200-250 g), were treated with either iced saline or 20 μl of a 1% peptide solution at the site of the sinus branch transection. The material was prepared by dissolving RADA 16-1 (n-RADARADARADARADA-c; SEQ ID NO: 1) peptide in sterile water, and the peptide-containing solution was applied to the injured tissue with a 31 gauge needle attached to a 2 cc syringe.
The experiment was videotaped with a time stamp and was replayed one frame at a time to evaluate the length of time required for the peptide solution to form a gel, which effectively impeded bleeding. Hemostasis was assessed visually, and “complete hemostasis” was defined as the complete lack of movement of blood from the wound site.
Durations were measured from the start of application of peptide solution to the completion of hemostasis after transection of the veins leading to the sinus in the brains of adult rats. […] In the saline controls, cessation of bleeding was never achieved. The saline control experiment was terminated at the same time point in order to prevent the animals from bleeding to death.
A total of 22 rats and 64 hamsters have been subjected to experiments in which peptide-containing solutions effectively achieved hemostasis within 10 seconds following application to a site intracranial bleeding.

[4] = tested on: liver (lobus sinister lateralis); assay: Liver, rostral to caudal cut of the lobus sinister lateralis (relatively low pressure vessel); hemostasis; assay type: in vivo, adult rat; settings: 1% peptide solution, topically and in the cut
Text: Profuse bleeding ensued. A 1% peptide solution (RADA16-1) was applied to the cut and in its vicinity using a 27 gauge needle and 4 cc syringe. All bleeding stopped within 10 seconds. A series of pictures was obtained. […] After treating the site with 1% peptide solution (applied topically and in the cut), all bleeding stopped within 10 seconds. A clear area was observed between the two halves of the lobus sinister lateralis. This procedure was repeated several times with the same result.

superior sagittal sinus = assay: Complete transection of the superior sagittal sinus; hemostasis; assay type: in vivo; settings: control animals still bleeding after 20 seconds
Text: A higher concentration of peptide (e.g., approximately 3%-4%) was used in the latter experiment in order to achieve hemostasis. The three saline control cases continued to bleed after 20 seconds.

skin wounds = assay: 4 mm punch biopsy healing test of skin and subcutaneous tissue; assay type: in vivo; settings: single application
Procedure: The regions from which the biopsies were taken were either treated by a single application of self-assembling peptide (RADA16-I) solution or were left untreated. The wounds were left unbandaged. A series of pictures of a 4 mm punch biopsy healing test in which injured animals were treated with the self assembling peptide and compared to matching cases with no treatment illustrates the results. The wounds were photographed on day 0, day 1, day 4, and day 7. […] Treatment with the peptide appeared to speed healing by as much as 5 days in some cases.

muscle of the hind limb = assay: Hind limb muscle wounds (porteocaudalis and musculus tibialis cranialis); hemostasis; assay type: in vivo
Text: However when an artery or vein was transected 2% or higher material was needed to bring about hemostasis. With the application of iced saline alone, control animals continued to bleed after 20 seconds.

femoral artery = assay: Femoral artery transection; hemostasis; assay type: in vivo, adult rats
Procedure: The sciatic nerve and the adjacent femoral artery were exposed in adult rats, and the femoral artery was transected. Twelve rats were treated by application of 20 μl of a 1% solution of RADA 16-I peptide to the site of transection using a glass pipette attached to a syringe body, while controls were treated by applying cold saline to the site of transection. […] The saline control cases continued to bleed until the experiment was terminated at 110 seconds. […] A series of pictures was taken in an adult rat in which the femoral artery was transected. In the picture taken first, the sciatic nerve and the femoral artery are exposed. […] The assembled material can be suctioned off the site easily if desired.
In the saline controls, hemostasis was never reached.

[5] = control cut treated 15 minutes after the injury

## n-RADARADARADARADA-c [RADA16-I]
Intestine (duodenum); 2% peptide solution
  leakage of gastric fluids after treatment of the site: all leakage of gastric fluids from the intestine stopped
Intestine (duodenum); 2% peptide solution, duration of the procedure
  leakage after additional volume injected into the duodenum: prevented all leakage from the intestine for one hour
Intestine (duodenum); [5]
  intestinal wall inversion: stopped the progression of the intestinal wall inversion
  leakage when treated after the injury: stopped all leakage from this injury site
[1]; 2% peptide, removed one minute later
  hemostasis at the margin after the peptide was removed: complete hemostasis was achieved
[1]; topical 2% peptide
  time until bleeding stopped: less than 10 seconds
Spinotrapezius muscles
  time until all bleeding had stopped: ≤ 10 s
[2]; 1% solution
  hemostasis: partial cessation of bleeding
[2]; 2% or 3% peptide solution
  hemostasis: complete hemostasis was also achieved
[2]; 4% peptide solution, topically and in the cut
  time until all bleeding stopped: ≤ 10 s
[2]; 4% peptide solution, ten minutes later, after physical stress
  bleeding at later time: still no bleeding
[2]; 30 seconds after treatment
  hemostasis after excess peptide structure was wiped away: hemostasis was maintained
[3]; 20 μl of a 1% peptide solution, rats and hamsters, all cases
  time to complete hemostasis after application of the peptide solution: ≤ 10 s
[3]; adult rat, five seconds after the peptide solution was applied
  hemostasis in picture series: Complete hemostasis was achieved
[3]; adult rats, transection of the veins leading to the sinus
  average duration from start of application to completion of hemostasis: 8.3 s
[4]
  time until all bleeding stopped: ≤ 10 s
Superior sagittal sinus
  hemostasis after iced saline was removed and peptide solution applied: complete hemostasis almost immediately
Skin wounds; contraction of the wound site as early as day 1
  wound healing versus untreated: healed much faster
Skin wounds; some cases
  speeding of healing versus no treatment: ≤ 5 days
Muscle of the hind limb; between 1% to 100% peptide
  hemostasis in limb wounds: hemostasis was achieved in all cases
Muscle of the hind limb; when an artery or vein was transected
  material concentration needed to bring about hemostasis: ≥ 2%
Femoral artery; 20 μl of a 1% solution, all treated cases
  time to hemostasis: less than 10 seconds
Femoral artery; adult rat, after about five seconds
  hemostasis in picture series: complete hemostasis was observed
Femoral artery; control animals
  hemostasis after replacement of cold saline with the peptide solution: almost immediate achievement of complete hemostasis
Femoral artery; duration of the test
  time complete hemostasis was maintained: ≥ 1 h
